According to patent US12532889B2, “Herbicidal compositions comprising glufosinate” (BASF SE, priority 2023, dated 2026):

What was measured:
Assay in all cases: Post-emergence application in field trials (Example A)
Type in all cases: in vivo
AVEFA (Avena fatua) = settings: Table 3.1; AVEFA growth stage 22-24, height 18-29 cm; A-1 12.5, B-2 500 g ai/ha; 28 DAT; water 100 l/ha
Outline: (§1)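 Field plots with natural or seeded weeds were treated post-emergence, solo or in mixtures. Damage was rated visually at stated days after treatment on a 0–100% scale against untreated plants; expected additive mixture activity calculated by the Colby method.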

AVESG (Avena strigosa) = settings: Table 1.6; AVESG growth stage 11-21, height 5-10 cm; A-1 25, B-2 400 g ai/ha; 14 DAT; water 200 l/ha
Outline: as §1

[1] = test system: BOILF (Spermacoce latifolia); settings: Table 1.16, A-1 25, B-2 400 g ai/ha, 21 DAT, water 200 l/ha
Outline: as §1

[2] = test system: CYPES (Cyperus esculentus); settings: 21 DAT, water 140 l/ha
Outline: as §1

[3] = test system: DIGHO (Digitaria horizontalis); settings: Table 1.4, DIGHO growth stage 24, 14 DAT, water 200 l/ha
Outline: as §1

ERISS (Erigeron sp.) = settings: Table 1.8, ERISS height 30-50 cm, 14 DAT, water 200 l/ha
Outline: as §1

[4] = test system: HORVS (Hordeum vulgare (spring barley)); settings: Table 3.1, HORVS volunteer barley, growth stage 22-24, height 32-35 cm, 28 DAT, water 100 l/ha
Outline: as §1

[5] = test system: POLCO (Polygonum convolvulus); settings: Table 3.2, A-1 12.5, B-2 500 g ai/ha, 14 DAT, water 100 l/ha
Outline: as §1

[6] = test system: CYPDI (Cyperus difformis); settings: CYPDI height 25 cm
Method: (§2) In the examples below, using the method of S. R. Colby (1967) “Calculating synergistic and antagonistic responses of herbicide combinations”, Weeds 15, p. 22ff., the value E, which is expected if the activity of the individual active compounds is only additive, was calculated:
(§3) [formula] • where • X=percent activity using active herbicide A at an application rate a; • Y=percent activity using active herbicide B (e.g. glufosinate) at an application rate b; • E=expected activity (in %) by A+B at application rates a+b.
(§4) If the value found experimentally is higher than the value E calculated according to Colby, a synergistic effect is present.
(§5) On field test sites, natural weed infestation or seeded weeds were treated post-emergence of the weeds.
(§6) In the field trials, the weeds were treated as indicated below.
(§7) In the following experiments, the herbicidal activity for the individual herbicidal compositions (solo and mixture applications) was assessed at the indicated days after treatment (DAT). The assessments for the damage on undesired weeds caused by the composition was carried out using a scale from 0 to 100%, compared to the untreated control plants. Here, 0 means no damage and 100 means complete destruction of the plants.
(§8) Post-emergence application of Herbicide A-1 (A-1) and glufosinate ammonium (B-2) in Field Trials:
(§9) Herbicide A-1 (50 g/l), glufosinate ammonium (200 g/l) and optional herbicide C were, together with addition of 0.5% v/v MSO (methylated seed oil) as adjuvant, formulated in water as distribution medium as indicated and sprayed with commercial flat fan nozzles.

[7] = test system: DIGIN = TRCIN (Digitaria insularis)
Method: as §2, §3, §4, §5, §6, §7, §8, §9

ELEIN (Eleusine indica) = test system: ELEIN (Eleusine indica)
Method: as §2, §3, §4, §5, §6, §7, §8, §9

EPHHI (Euphorbia hirta) = settings: Table 1.2; EPHHI height 25 cm; B-2 solo 400 g ai/ha; 14 DAT; water volume 100 l/ha; 0.5% v/v MSO
Method: as §2, §3, §4, §5, §6, §7, §8, §9

[8] = test system: SPCHI (Spermacoce hispida); settings: Table 1.2; SPCHI height 25 cm; B-2 solo 400 g ai/ha; 14 DAT; water volume 100 l/ha; 0.5% v/v MSO
Method: as §2, §3, §4, §5, §6, §7, §8, §9

[9] = test system: CYPKH (Cyperus kyllingia var. humilis); settings: Table 5.4; CYPKH growth stage 76-77, height 13-14 cm; A-1 25, B-6 252 g ai/ha; 28 DAT; water 400 l/ha
Outline: as §1

GLXMA (Glycine max) = settings: 21 DAT; B-6 252 g ai/ha; growth stage 13; height 5-10 cm
Outline: as §1

SMILES: CP(=O)(O)CCC(N)C(=O)O (stereo not drawn) [B-2, glufosinate-ammonium]
- % herbicidal activity (AVEFA (Avena fatua)): 68%
- % herbicidal activity (AVESG (Avena strigosa)): 83%
- % herbicidal activity [1]: 73%
- % herbicidal activity ([2]; Table 4.2, A-1 25, B-2 655 g ai/ha): 18%
- % herbicidal activity ([2]; Table 4.2, A-1 50, B-2 655 g ai/ha): 18%
- % herbicidal activity ([3]; A-1 25, B-2 400 g ai/ha): 30%
- % herbicidal activity ([3]; A-1 50, B-2 400 g ai/ha): 30%
- % herbicidal activity (ERISS (Erigeron sp.); A-1 25, B-2 400 g ai/ha): 40%
- % herbicidal activity (ERISS (Erigeron sp.); A-1 50, B-2 400 g ai/ha): 40%
- % herbicidal activity ([4]; A-1 12.5, B-2 500 g ai/ha): 15%
- % herbicidal activity ([4]; A-1 18, B-2 500 g ai/ha): 15%
- % herbicidal activity [5]: 28%
- % herbicidal activity ([6]; Table 1.15, A-1 25, B-2 400 g ai/ha, 21 DAT, water 100 l/ha): 10%
- % herbicidal activity ([6]; Table 1.2, B-2 solo 400 g ai/ha, 14 DAT, water volume 100 l/ha, 0.5% v/v MSO): 20%
- % herbicidal activity ([7]; Table 1.13, DIGIN height 20-30 cm, A-1 50, B-2 400 g ai/ha, 21 DAT, water 100 l/ha): 20%
- % herbicidal activity ([7]; Table 1.17, DIGIN height 20-30 cm, A-1 50, B-2 400 g ai/ha, 21 DAT, water 200 l/ha): 30%
- % herbicidal activity ([7]; Table 1.19, DIGIN height 20-30 cm, A-1 50, B-2 400 g ai/ha, 21 DAT, water 200 l/ha): 30%
- % herbicidal activity ([7]; Table 1.20, DIGIN height 60-80 cm, A-1 50, B-2 400 g ai/ha, 21 DAT, water 200 l/ha): 57%
- % herbicidal activity ([7]; Table 1.22, DIGIN in tillering stage, height 5-15 cm, A-1 50, B-2 400 g ai/ha, 21 DAT, water 200 l/ha): 35%
- % herbicidal activity ([7]; Table 1.22, DIGIN in tillering stage, height 5-15 cm, A-1 50, B-2 600 g ai/ha, 21 DAT, water 200 l/ha): 70%
- % herbicidal activity ([7]; Table 1.23, DIGIN growth stage 16-18, height 15-25 cm, A-1 50, B-2 400 g ai/ha, 21 DAT, water 200 l/ha): 55%
- % herbicidal activity ([7]; Table 1.23, DIGIN growth stage 16-18, height 15-25 cm, A-1 50, B-2 600 g ai/ha, 21 DAT, water 200 l/ha): 65%
- % herbicidal activity ([7]; Table 1.24, DIGIN growth stage 67, height 100 cm, A-1 50, B-2 400 g ai/ha, 21 DAT, water 200 l/ha): 17%
- % herbicidal activity ([7]; Table 1.24, DIGIN growth stage 67, height 100 cm, A-1 50, B-2 600 g ai/ha, 21 DAT, water 200 l/ha): 37%
- % herbicidal activity ([7]; Table 1.25, DIGIN in tillering stage, height 8-20 cm, A-1 50, B-2 400 g ai/ha, 21 DAT, water 200 l/ha): 25%
- % herbicidal activity ([7]; Table 1.25, DIGIN in tillering stage, height 8-20 cm, A-1 50, B-2 600 g ai/ha, 21 DAT, water 200 l/ha): 43%
- % herbicidal activity ([7]; Table 1.26, DIGIN in tillering stage, height 50-70 cm, A-1 50, B-2 400 g ai/ha, 21 DAT, water 200 l/ha): 15%
- % herbicidal activity ([7]; Table 1.26, DIGIN in tillering stage, height 50-70 cm, A-1 50, B-2 600 g ai/ha, 21 DAT, water 200 l/ha): 15%
- % herbicidal activity ([7]; Table 1.3, DIGIN height 60-80 cm, A-1 25, B-2 400 g ai/ha, 14 DAT, water 200 l/ha): 68%
- % herbicidal activity ([7]; Table 1.3, DIGIN height 60-80 cm, A-1 50, B-2 400 g ai/ha, 14 DAT, water 200 l/ha): 68%
- % herbicidal activity ([7]; Table 1.5, DIGIN growth stage 16-18, height 15-25 cm, A-1 50, B-2 400 g ai/ha, 14 DAT, water 200 l/ha): 60%
- % herbicidal activity ([7]; Table 1.5, DIGIN growth stage 16-18, height 15-25 cm, A-1 50, B-2 600 g ai/ha, 14 DAT, water 200 l/ha): 70%
- % herbicidal activity ([7]; Table 1.7, DIGIN height 50-70 cm, tillering stage, B-2 solo 600 g ai/ha, 14 DAT, water volume 200 l/ha, 0.5% v/v MSO): 17%
- % herbicidal activity (ELEIN (Eleusine indica); Table 1.10, ELEIN growth stage 23-25, height 3-5 cm, A-1 25, B-2 400 g ai/ha, 20 DAT, water 200 l/ha): 35%
- % herbicidal activity (ELEIN (Eleusine indica); Table 1.1, ELEIN growth stage 24, B-2 solo 400 g ai/ha, 14 DAT, water volume 100 l/ha, 0.5% v/v MSO): 12%
- % herbicidal activity (ELEIN (Eleusine indica); Table 1.14, ELEIN growth stage 24, A-1 25, B-2 400 g ai/ha, 21 DAT, water 100 l/ha): 0%
- % herbicidal activity (ELEIN (Eleusine indica); Table 1.15, ELEIN height 25 cm, A-1 25, B-2 400 g ai/ha, 21 DAT, water 100 l/ha): 10%
- % herbicidal activity (ELEIN (Eleusine indica); Table 1.15, ELEIN height 25 cm, A-1 50, B-2 400 g ai/ha, 21 DAT, water 100 l/ha): 10%
- % herbicidal activity (ELEIN (Eleusine indica); Table 1.18, ELEIN growth stage 24, A-1 25, B-2 400 g ai/ha, 21 DAT, water 200 l/ha): 0%
- % herbicidal activity (ELEIN (Eleusine indica); Table 1.18, ELEIN growth stage 24, A-1 50, B-2 400 g ai/ha, 21 DAT, water 200 l/ha): 0%
- % herbicidal activity (ELEIN (Eleusine indica); Table 1.21, ELEIN growth stage 24, A-1 25, B-2 400 g ai/ha, 21 DAT, water 200 l/ha): 0%
- % herbicidal activity (ELEIN (Eleusine indica); Table 1.21, ELEIN growth stage 24, A-1 50, B-2 400 g ai/ha, 21 DAT, water 200 l/ha): 0%
- % herbicidal activity (ELEIN (Eleusine indica); Table 1.4, ELEIN growth stage 24, A-1 50, B-2 400 g ai/ha, 14 DAT, water 200 l/ha): 18%
- % herbicidal activity (ELEIN (Eleusine indica); Table 1.9, ELEIN growth stage 23-25, height 3-5 cm, A-1 25, B-2 400 g ai/ha, 20 DAT, water 100 l/ha): 20%
- % herbicidal activity (EPHHI (Euphorbia hirta)): 20%
- % herbicidal activity [8]: 20%

SMILES: CP(=O)(O)CC[C@H](N)C(=O)O.N [B-6, glufosinate-P-ammonium]
- % herbicidal activity [9]: 48%
- % herbicidal activity (GLXMA (Glycine max)): 70%
